Target: Factor D (Homo sapiens (Human), UniProt P00746)
Test: Factor D esterolytic assay (Z-Lys-SBzl substrate, DTNB, 405 nm)
Assay type: biochemical
Conditions: Z-Lys-SBzl 1.29 mM, pH 7.5, 10% DMSO, tested a minimum of three times, read-out: Measured Ki (IC50) Value for Compounds: IC50
Procedure, shortened: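 Human Factor D ([…]) with 1.29 mM Z-Lys-SBzl in 100 mM HEPES, 500 mM NaCl, pH 7.5, 10% DMSO; substrate added immediately or after room-temperature preincubation. Released thiol reacted with DTNB, rate followed at 405 nm for 600 sec, 690 nm background subtracted. IC50 from percent inhibition versus uninhibited rate, n≥3.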

Sequence of Factor D (P00746 26-253): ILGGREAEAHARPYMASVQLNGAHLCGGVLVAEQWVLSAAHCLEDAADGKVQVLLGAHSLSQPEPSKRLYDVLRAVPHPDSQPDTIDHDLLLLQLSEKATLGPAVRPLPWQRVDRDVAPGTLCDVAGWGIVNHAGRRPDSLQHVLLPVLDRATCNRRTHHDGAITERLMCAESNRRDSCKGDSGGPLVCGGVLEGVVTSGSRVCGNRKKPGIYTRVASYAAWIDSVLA

Row | Structure (SMILES) | IC50 [nM]
1 | Cc1ccc(CC(=O)O)c(OCc2cc(-c3ccnc(CN)c3)c3occ(C(F)(F)F)c3c2)c1 [Compound 379c, 2-(2-((7-(2-(aminomethyl)pyridin-4-yl)-3-(trifluoromethyl)benzofuran-5-yl)methoxy)-4-methylphenyl)acetic acid] | < 1000
2 | N[C@H](c1cc(-c2cc(COc3ccccc3CC(=O)O)cc3ccoc23)ccn1)C(F)(F)F [Compound 380e, (R)-2-(2-((7-(2-(1-amino-2,2,2-trifluoroethyl)pyridin-4-yl)benzofuran-5-yl)methoxy)phenyl)acetic acid] | > 10000
3 | N[C@@H](c1cc(-c2cc(COc3ccccc3CC(=O)O)cc3ccoc23)ccn1)C(F)(F)F [Compound 381e, (S)-2-(2-((7-(2-(1-amino-2,2,2-trifluoroethyl)pyridin-4-yl)benzofuran-5-yl)methoxy)phenyl)acetic acid] | > 10000
4 | Cc1coc2c(-c3cccc(CN)c3)cc(COc3ccccc3CC(=O)O)cc12 [Compound 382h, 2-(2-((7-(3-(aminomethyl)phenyl)-3-methylbenzofuran-5-yl)methoxy)phenyl)acetic acid] | < 1000
5 | Cc1coc2c(-c3cccc(CN)c3F)cc(COc3ccccc3CC(=O)O)cc12 [Compound 383b, 2-(2-((7-(3-(aminomethyl)-2-fluorophenyl)-3-methylbenzofuran-5-yl)methoxy)phenyl)acetic acid] | < 1000
6 | COc1ccc(CC(=O)O)c(OCc2cc(-c3cccc(CN)c3)c3occc3c2F)c1 [Compound 384c, 2-(2-((7-(3-(aminomethyl)phenyl)-4-fluorobenzofuran-5-yl)methoxy)-4-methoxyphenyl)acetic acid] | < 1000
7 | COc1ccc(CC(=O)O)c(OCc2cc(-c3ccnc(CN)c3F)c3occc3c2F)c1 [Compound 385d, 2-(2-((7-(2-(aminomethyl)-3-fluoropyridin-4-yl)-4-fluorobenzofuran-5-yl)methoxy)-4-methoxyphenyl)acetic acid] | < 1000
8 | NCc1cccc(-c2cc(COc3ccc(F)cc3CC(=O)O)c(F)c3ccoc23)c1 [Compound 386c, 2-(2-((7-(3-(aminomethyl)phenyl)-4-fluorobenzofuran-5-yl)methoxy)-5-fluorophenyl)acetic acid] | < 1000
9 | NCc1cccc(-c2cc(COc3ccc(F)cc3CC(=O)O)c(F)c3ccoc23)c1F [Compound 387b, 2-(2-((7-(3-(aminomethyl)-2-fluorophenyl)-4-fluorobenzofuran-5-yl)methoxy)-5-fluorophenyl)acetic acid] | < 1000
10 | NCc1nccc(-c2cc(COc3ccc(F)cc3CC(=O)O)c(F)c3ccoc23)c1F [Compound 388d, 2-(2-((7-(2-(aminomethyl)-3-fluoropyridin-4-yl)-4-fluorobenzofuran-5-yl)methoxy)-5-fluorophenyl)acetic acid] | < 1000
11 | NCc1cc(-c2cc(COc3ccc(F)cc3CC(=O)O)c(F)c3ccoc23)ccn1 [Compound 389c, 2-(2-((7-(2-(aminomethyl)pyridin-4-yl)-4-fluorobenzofuran-5-yl)methoxy)-5-fluorophenyl)acetic acid] | < 1000
12 | CCc1ccc(CC(=O)O)c(OCc2cc(-c3ccnc(CN)c3)c3oc(F)cc3c2)c1 [Compound 390c, 2-(2-((7-(2-(aminomethyl)pyridin-4-yl)-2-fluorobenzofuran-5-yl)methoxy)-4-ethylphenyl)acetic acid] | < 1000
13 | NCc1cccc(-c2cc(COc3cc(-c4ccccc4)ccc3CC(=O)O)cc3ccoc23)c1F [Compound 391f, 2-(3-((7-(3-(aminomethyl)-2-fluorophenyl)benzofuran-5-yl)methoxy)-[1,1′-biphenyl]-4-yl)acetic acid] | < 1000
14 | NCc1cccc(-c2cc(COc3c(CC(=O)O)ccc4ccoc34)cc3ccoc23)c1 [Compound 392g, 2-(7-((7-(3-(aminomethyl)phenyl)benzofuran-5-yl)methoxy)benzofuran-6-yl)acetic acid] | < 1000
15 | NCc1cc(-c2cc(COc3cc(-c4ccccc4)ccc3CC(=O)O)cc3ccoc23)ccn1 [Compound 393d, 2-(3-((7-(2-(aminomethyl)pyridin-4-yl)benzofuran-5-yl)methoxy)-[1,1′-biphenyl]-4-yl)acetic acid] | < 1000
16 | NCc1nccc(-c2cc(COc3cc(-c4ccccc4)ccc3CC(=O)O)cc3ccoc23)c1F [Compound 394c, 2-(3-((7-(2-(aminomethyl)-3-fluoropyridin-4-yl)benzofuran-5-yl)methoxy)-[1,1′-biphenyl]-4-yl)acetic acid] | < 1000
17 | NCc1cccc(-c2cc(COc3cc(C4CCCC4)ccc3CC(=O)O)cc3ccoc23)c1 [Compound 395c, 2-(2-((7-(3-(aminomethyl)phenyl)benzofuran-5-yl)methoxy)-4-cyclopentylphenyl)acetic acid] | < 1000
18 | Cn1cc(-c2ccc(CC(=O)O)c(OCc3cc(-c4cccc(CN)c4)c4occc4c3)c2)cn1 [Compound 396e, 2-(2-((7-(3-(aminomethyl)phenyl)benzofuran-5-yl)methoxy)-4-(1-methyl-1H-pyrazol-4-yl)phenyl)acetic acid] | < 1000
19 | COc1ccc(-c2ccc(CC(=O)O)c(OCc3cc(-c4cccc(CN)c4)c4occc4c3)c2)c(F)c1 [Compound 397e, 2-(3-((7-(3-(aminomethyl)phenyl)benzofuran-5-yl)methoxy)-2′-fluoro-4′-methoxy-[1,1′-biphenyl]-4-yl)acetic acid] | < 1000
20 | NCc1cccc(-c2cc(COc3cc(-c4ccc(F)cc4)ccc3CC(=O)O)cc3ccoc23)c1 [Compound 398c, 2-(3-((7-(3-(aminomethyl)phenyl)benzofuran-5-yl)methoxy)-4′-fluoro-[1,1′-biphenyl]-4-yl)acetic acid] | < 1000
21 | NCc1cccc(-c2cc(COc3c(CC(=O)O)ccc4ccccc34)cc3ccoc23)c1 [Compound 399d, 2-(1-((7-(3-(aminomethyl)phenyl)benzofuran-5-yl)methoxy)naphthalen-2-yl)acetic acid] | < 1000
22 | NCc1cccc(-c2cc(COc3ccc4ccccc4c3CC(=O)O)cc3ccoc23)c1 [Compound 400e, 2-(2-((7-(3-(aminomethyl)phenyl)benzofuran-5-yl)methoxy)naphthalen-1-yl)acetic acid] | < 1000
23 | NCc1cccc(-c2cc(COc3cc4ccccc4cc3CC(=O)O)cc3ccoc23)c1 [Compound 401e, 2-(3-((7-(3-(aminomethyl)phenyl)benzofuran-5-yl)methoxy)naphthalen-2-yl)acetic acid] | < 1000
24 | NCc1cccc(-c2cc(N(Cc3ccccc3CC(=O)O)C(=O)OCc3ccccc3)cc3ccoc23)c1 [Compound 404c, 2-(2-(((7-(3-(aminomethyl)phenyl)benzofuran-5-yl)((benzyloxy)carbonyl)amino)methyl)phenyl)acetic acid] | < 1000

Next, values leading:

Row | IC50 [nM] | Structure (SMILES)
25 | < 1000 | Cc1ccc(CC(=O)O)c(OCc2cc(-c3ccnc(CN)c3)c3ccn(C)c3c2)c1 [Compound 367c, 2-(2-((4-(2-(aminomethyl)pyridin-4-yl)-1-methyl-1H-indol-6-yl)methoxy)-4-methylphenyl)acetic acid]
26 | < 1000 | NCc1cccc(-c2cc(CC(=O)N3C[C@H](F)C[C@H]3C(=O)NCc3cccc(Cl)c3F)cc3ccoc23)c1 [Compound 368c, (2S,4R)-1-(2-(7-(3-(aminomethyl)phenyl)benzofuran-5-yl)acetyl)-N-(3-chloro-2-fluorobenzyl)-4-fluoropyrrolidine-2-carboxamide]
27 | < 1000 | NCc1cccc(-c2cc(CCN3CCC[C@H]3C(=O)NCc3cccc(Cl)c3F)cc3ccoc23)c1 [Compound 369d, (S)-1-(2-(7-(3-(aminomethyl)phenyl)benzofuran-5-yl)ethyl)-N-(3-chloro-2-fluorobenzyl)pyrrolidine-2-carboxamide]
28 | < 1000 | NCc1cccc(-c2cc(COc3c(CC(=O)O)cccc3-c3ccccc3)cc3ccoc23)c1 [Compound 370f, 2-(2-((7-(3-(aminomethyl)phenyl)benzofuran-5-yl)methoxy)-[1,1′-biphenyl]-3-yl)acetic acid]
29 | < 1000 | CCc1ccc(CC(=O)O)c(OCc2cc(-c3ccnc(CN)c3)c3occc3c2)c1 [Compound 371c, 2-(2-((7-(2-(aminomethyl)pyridin-4-yl)benzofuran-5-yl)methoxy)-4-ethylphenyl)acetic acid]
30 | < 1000 | Cn1ccc(NCc2cc3cc(COc4ccccc4CC(=O)O)cc(-c4cccc(CN)c4)c3o2)n1 [Compound 372c, 2-(2-((7-(3-(aminomethyl)phenyl)-2-(((1-methyl-1H-pyrazol-3-yl)amino)methyl)benzofuran-5-yl)methoxy)phenyl)acetic acid]
31 | < 1000 | NCc1cccc(-c2cc(COc3ccccc3CC(=O)O)cc3cc(F)oc23)c1F [Compound 373b, 2-(2-((7-(3-(aminomethyl)-2-fluorophenyl)-2-fluorobenzofuran-5-yl)methoxy)phenyl)acetic acid]
32 | < 1000 | NCc1cccc(-c2cc(COc3ccccc3CC(=O)O)cc3cc(-c4ccccc4)oc23)c1 [Compound 374f, 2-(2-((7-(3-(aminomethyl)phenyl)-2-phenylbenzofuran-5-yl)methoxy)phenyl)acetic acid]
33 | < 1000 | CCc1ccc(CC(=O)O)c(OCc2cc(-c3ccnc(CN)c3F)c3occc3c2)c1 [Compound 375c, 2-(2-((7-(2-(aminomethyl)-3-fluoropyridin-4-yl)benzofuran-5-yl)methoxy)-4-ethylphenyl)acetic acid]
34 | < 1000 | NCc1cccc(-c2cc(COc3ccccc3CC(=O)O)cc3cc(Cc4ccccc4)oc23)c1 [Compound 377e, 2-(2-((7-(3-(aminomethyl)phenyl)-2-benzylbenzofuran-5-yl)methoxy)phenyl)acetic acid]
35 | < 1000 | CN(Cc1ccccc1CC(=O)O)c1cc(-c2cccc(CN)c2)c2occc2c1 [Compound 378d, 2-(2-(((7-(3-(aminomethyl)phenyl)benzofuran-5-yl)(methyl)amino)methyl)phenyl)acetic acid]

— US11370774B2, “Substituted benzofuran, benzopyrrole, benzothiophene, and structurally related complement inhibitors” (BioCryst Pharmaceuticals, Inc., priority 2018, dated 2022)
